Experimental data published in PMC6696198, “Thyroid Peroxidase Activity is Inhibited by Phenolic Compounds—Impact of Interaction” (Molecules, 2019).
Where “and” joins values, the source holds several entries; their conditions need not be identical. Equal entries are not always repeated. Entries after “also recorded” stand apart in the source; their conditions may differ. Where two headings read alike, the source gives them in different places.

Tests used:
TPO [1] = tested on: TPO; set-up: method as in PMID 25822105; details: according to literature data ref 22; read-out: IC50 of TPO inhibition (positive controls); cited from earlier work
[2] = ABTS radical scavenging (in vitro antioxidant capacity) assay; details: n = 9
Experimental: The ABTS radical scavenging activity was determined according to Re et al. with some modifications. 250 µL of ABTS solution was mixed with 10 µL of each pure polyphenols solutions (concentration 50 µg/mL) and measured at the wavelength 724 nm using a UV/Vis spectrophotometer (BioTek, Model Epoch2TC, Winooski, Vermont, VT, USA) after 15 min of incubation in room temperature. The inhibition percentage of ABTS discoloration was calculated using the following equation: AA=Ac−Ap/Ac×100% Where Ac—the absorbance of control, Ap—the absorbance of pure polyphenols solutions.

thyroid peroxidase (TPO) [3] = target: T1, thyroid peroxidase (TPO) (Sus scrofa, UniProt P09933); assay: TPO inhibitory assay (guaiacol oxidation); type: biochemical, porcine; details: for Mode of Inhibition: Lineweaver-Burk plot, with respect to guaiacol; for Vmax: TPO in presence of inhibitor; for Vmax / Ki / IC50: n = 9; for IC50: porcine thyroid TPO, guaiacol assay, read-out: IC50 of TPO inhibition
T1 construct: The frozen thyroid gland was cut into slices and homogenized in a buffer containing 0.25 M sucrose; from tissue; host or cells: porcine thyroid gland (homogenate, centrifuged, salted-out to 60%)
T1 sequence (P09933 15-926): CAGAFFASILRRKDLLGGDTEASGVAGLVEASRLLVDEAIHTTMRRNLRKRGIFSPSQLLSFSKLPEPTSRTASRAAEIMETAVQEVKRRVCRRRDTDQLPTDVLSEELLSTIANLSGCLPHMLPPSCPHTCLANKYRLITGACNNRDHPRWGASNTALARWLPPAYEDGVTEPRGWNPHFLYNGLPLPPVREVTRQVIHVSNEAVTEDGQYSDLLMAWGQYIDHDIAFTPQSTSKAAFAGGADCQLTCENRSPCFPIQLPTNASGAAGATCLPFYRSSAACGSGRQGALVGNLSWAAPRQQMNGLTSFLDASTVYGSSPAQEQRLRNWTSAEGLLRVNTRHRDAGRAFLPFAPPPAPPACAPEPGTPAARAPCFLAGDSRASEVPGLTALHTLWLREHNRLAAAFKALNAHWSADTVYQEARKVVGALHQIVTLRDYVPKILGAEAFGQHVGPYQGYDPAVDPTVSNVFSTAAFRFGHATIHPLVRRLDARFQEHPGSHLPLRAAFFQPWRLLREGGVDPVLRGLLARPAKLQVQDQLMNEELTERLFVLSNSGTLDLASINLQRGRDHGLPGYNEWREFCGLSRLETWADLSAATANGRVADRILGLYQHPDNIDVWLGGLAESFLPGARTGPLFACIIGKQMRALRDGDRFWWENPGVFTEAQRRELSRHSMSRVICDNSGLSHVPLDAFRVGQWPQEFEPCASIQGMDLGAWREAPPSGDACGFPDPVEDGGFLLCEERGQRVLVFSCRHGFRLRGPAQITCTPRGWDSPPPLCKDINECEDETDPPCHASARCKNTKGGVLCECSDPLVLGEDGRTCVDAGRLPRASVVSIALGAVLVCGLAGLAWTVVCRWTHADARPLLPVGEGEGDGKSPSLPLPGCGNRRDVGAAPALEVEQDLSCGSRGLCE
Experimental: Porcine thyroid glands were obtained at a local slaughterhouse (Lublin, Poland) and stored in −20 °C until used.
The assay was prepared according to Jomaa with some modifications. The frozen thyroid gland was cut into slices and homogenized in a buffer containing 0.25 M sucrose, 2 mM Tris—HCl, 100 mM KCl, 40 mM NaCl, 10 mM MgCl2 (pH 7.4) with a Philips homogenizer. The thyroid gland was than centrifuged two times at 4000 RPM per 15 min in temperature +4 °C. The enzyme protein was then salted-out to 60%. The supernatant was used for further analysis and was stored in a −20 °C freezer.
The activity of the enzyme was assayed using a guaiacol assay. […] The reaction components were incubated in 37 °C before the assignment. […] The assay was conducted as follows: To a cuvette, 180 µL of buffer, 100 µL of guaiacol and 40 µL of TPO were mixed to the final volume of […]. The cuvette was then placed into the spectrophotometer and the reaction was started by the addition of 100 µL H2O2. Absorbance readings were recorded every minute for a total of 3 min. Verification of the TPO activity was accomplished by linearly correlating the TPO concentration with absorbance readings.
(§1) The assay was used according to Jomaa with some modification. The measurement was made using a plate spectrophotometer (BioTek, Model Epoch2TC, Winooski, Vermont, VT, USA) in 96–well plates at a wavelength of 470 nm. The assay was conducted as follows: 50 µl of buffer, 40 µl of pure substance solution, 50 µL of guaiacol, 20 µL of TPO enzyme and 50 µL H2O2. The total volume of the mixture was 210 µL. In the sample probe, extracts were replaced by the buffer. Absorbance readings were recorded every minute for a total of 3 min in 37^o. As a unit of TPO activity is defined as the change of absorbation per minute.
TPO inhibitory activity was calculated as follows: %inhibition=(1−ΔA/mintest/ΔAminblank)×100 Where: ΔA/min test is the linear absorbance change per minute of the test material and ΔA min blank is the linear change in absorbance per minute of the blank.
The IC50 value was determined by the interpolation of dose response curves. […] The mode of inhibition of the enzyme was performed using the Lineweaver–Burk plot.

thyroid peroxidase (TPO) [4] = target: T1, thyroid peroxidase (TPO); assay: Effect of pure substance combinations on TPO activity (isobolographic analysis); type: biochemical, porcine; set-up: key to CI (Combination Index): CI <1 = synergy, =1 = addition, >1 = antagonism; details: TPO inhibition; for CI (Combination Index): n = 9
Experimental: as §1
Results (type and strength of interactions) can be shown on the isobolograms and described by the combination Index (CI). When CI is lower than one, indicates synergy; when CI is equal to one, indicates addition; when CI is higher than one, indicates antagonism. Isobolograms were performed according to Chou. […] Pure substances were mixed in various volume ratios: 1:4, 4:1, 3:2, 2:3, 1:1. All of the mixtures were made in combinations of two substances. The inhibitory assay was made using the same proportions as with single solutions.

TPO [5] = tested on: TPO; set-up: method as in PMID 8924586; details: read-out: IC50 in relation to TPO; cited from earlier work
[6] = after meal containing 150 g fried onions (equivalent to 64 mg quercetin); cited from earlier work
[7] = set-up: method as in doi:10.1039/C6RA28237G; details: rats, cited from earlier work
[8] = set-up: method as in PMID 25978046; details: Melissa officinalis extract containing 500 mg rosmarinic acid, fasted state; cited from earlier work
[9] = six weeks supplementation with rutin, volunteers; cited from earlier work
[10] = mixture with Chlorogenic Acid, listed as Rosmarinic acid
[11] = mixture with Quercetin, listed as Rosmarinic acid
[12] = mixture with Chlorogenic Acid, listed as Rutin

Cn1cc[nH]c1=S [Methimazole]
IC50 (TPO [1]): 10.7 µM

CCCc1cc(=O)[nH]c(=S)[nH]1 [Propylthiouracil]
IC50 (TPO [1]): 4 µM

Cc1c(C)c2c(c(C)c1O)CCC(C)(C(=O)O)O2 (centres unmarked) [Trolox, 6-hydroxy-2,5,7,8-tetramethylchroman-2-carboxylic acid, reference compound]
IC50 [2]: 407 ± 14 µM

O=C(/C=C/c1ccc(O)c(O)c1)O[C@@H]1C[C@](O)(C(=O)O)C[C@@H](O)[C@H]1O [chlorogenic acid]
Mode of Inhibition (thyroid peroxidase (TPO) [3]): noncompetitive | Vmax (thyroid peroxidase (TPO) [3]): 149.25 ± 5.97 a * ΔAU/min | Ki (thyroid peroxidase (TPO) [3]): 170 ± 5 µM | IC50 (thyroid peroxidase (TPO) [3]): 1440 ± 41 µM | Type of interaction (scale according to Chou) (thyroid peroxidase (TPO) [4]; mixture with Quercetin): antagonism; also recorded: antagonistic interaction | Type of interaction (scale according to Chou) (thyroid peroxidase (TPO) [4]; mixture with Quercetin, listed as Chlorogenic acid): Antagonism | Type of interaction (scale according to Chou) (thyroid peroxidase (TPO) [4]; mixture with Rosmarinic Acid): antagonistic interaction; also recorded: Moderate antagonism | Type of interaction (scale according to Chou) (thyroid peroxidase (TPO) [4]; mixture with Rutin): Slight synergism

O=c1c(O)c(-c2ccc(O)c(O)c2)oc2cc(O)cc(O)c12 [quercetin]
IC50 [2]: 450 µM and 447 µM | Mode of Inhibition (thyroid peroxidase (TPO) [3]): uncompetitive | Vmax (thyroid peroxidase (TPO) [3]): 149.25 ± 4.35 a ΔAU/min | Type of interaction (scale according to Chou) (thyroid peroxidase (TPO) [4]; mixture with Chlorogenic Acid): Antagonism | Type of interaction (scale according to Chou) (thyroid peroxidase (TPO) [4]; mixture with Rosmarinic Acid): Moderate antagonism | IC50 (TPO [5]): 2.4 µM | human plasma concentration of quercetin [6]: about 0.65 umol/l

O=C(/C=C/c1ccc(O)c(O)c1)O[C@H](Cc1ccc(O)c(O)c1)C(=O)O [rosmarinic acid]
IC50 [2]: 151 ± 6 µM | Mode of Inhibition (thyroid peroxidase (TPO) [3]): competitive | Vmax (thyroid peroxidase (TPO) [3]): 175.44 ± 7.01 b ΔAU/min | Ki (thyroid peroxidase (TPO) [3]): 1 µM | IC50 (thyroid peroxidase (TPO) [3]): 4 ± 0.14 µM | Type of interaction (scale according to Chou) (thyroid peroxidase (TPO) [4]; mixture with Chlorogenic Acid): moderate antagonism | CI (Combination Index) (thyroid peroxidase (TPO) [4]; mixture with Chlorogenic Acid): 1.25 | CI (Combination Index) (thyroid peroxidase (TPO) [4]; [10]): 1.25 ± 0.05 | Type of interaction (scale according to Chou) (thyroid peroxidase (TPO) [4]; [10]): Moderate antagonism | Type of interaction (scale according to Chou) (thyroid peroxidase (TPO) [4]; mixture with Quercetin): moderate antagonism; also recorded: antagonistic interaction | CI (Combination Index) (thyroid peroxidase (TPO) [4]; mixture with Quercetin): 1.45 | CI (Combination Index) (thyroid peroxidase (TPO) [4]; [11]): 1.45 ± 0.03 | Type of interaction (scale according to Chou) (thyroid peroxidase (TPO) [4]; [11]): Moderate antagonism | Type of interaction (scale according to Chou) (thyroid peroxidase (TPO) [4]; mixture with Rutin): nearly additive | CI (Combination Index) (thyroid peroxidase (TPO) [4]; mixture with Rutin): 1.06 ± 0.05 | Type of interaction (scale according to Chou) (thyroid peroxidase (TPO) [4]; mixture with Rutin, listed as Rosmarinic acid): Nearly additive | absolute bioavailability ([7]; oral 25 mg/kg): 1.28% | absolute bioavailability ([7]; oral 50 mg/kg): 0.91% | absolute bioavailability ([7]; oral […]): 1.69% | maximum serum concentration [8]: 162.20 nM | time of peak serum concentration of total rosmarinic acid [8]: 1 h

C[C@@H]1O[C@@H](OC[C@H]2O[C@@H](Oc3c(-c4ccc(O)c(O)c4)oc4cc(O)cc(O)c4c3=O)[C@H](O)[C@@H](O)[C@@H]2O)[C@H](O)[C@H](O)[C@H]1O [rutin]
IC50 [2]: 292 ± 10 µM | Mode of Inhibition (thyroid peroxidase (TPO) [3]): competitive | Vmax (thyroid peroxidase (TPO) [3]): 149.25 ± 5.01 a ΔAU/min | Ki (thyroid peroxidase (TPO) [3]): 130 ± 3 µM | Type of interaction (scale according to Chou) (thyroid peroxidase (TPO) [4]; mixture with Chlorogenic Acid): slight synergism; also recorded: synergistically | CI (Combination Index) (thyroid peroxidase (TPO) [4]; mixture with Chlorogenic Acid): 0.88 | CI (Combination Index) (thyroid peroxidase (TPO) [4]; [12]): 0.88 ± 0.02 | Type of interaction (scale according to Chou) (thyroid peroxidase (TPO) [4]; [12]): Slight synergism | Type of interaction (scale according to Chou) (thyroid peroxidase (TPO) [4]; mixture with Quercetin): additive interaction; also recorded: nearly additive | CI (Combination Index) (thyroid peroxidase (TPO) [4]; mixture with Quercetin): 0.096 and 0.096 ± 0.05 | Type of interaction (scale according to Chou) (thyroid peroxidase (TPO) [4]; mixture with Quercetin, listed as Rutin): additively; also recorded: Nearly additive | Type of interaction (scale according to Chou) (thyroid peroxidase (TPO) [4]; mixture with Rosmarinic Acid): additively; also recorded: additive interaction | Type of interaction (scale according to Chou) (thyroid peroxidase (TPO) [4]; mixture with Rosmarinic Acid, listed as Rutin): Nearly additive | IC50 (TPO [5]): 40.6 µM | increase in plasma isorhamnetin [9]: 10 fold | increase in plasma kaempferol [9]: 3 fold | increase in plasma quercetin [9]: 2.5 fold
